These are literature values, as cited in patent publication US6794370B2, “Method for treating cancer using camptothecin derivatives and 5-fluorouracil” (priority 1999, dated 2004).

Like-named read-outs stand apart in the source and are kept apart here.

Series [1] has as its system colorectal cancer. The following applies: compared with supportive care only.
The subject of series [2] is metastatic colorectal cancer. The following applies: 125 mg/m^2 intravenously.
Series [3] deals with colorectal cancer. The following applies: metastatic disease, compared to no antitumour therapy.
Series [4] has as its system colorectal cancer.

For Irinotecan [CPT-11], in series [1], the quality of life result is “better quality of life” and the survival entry is “longer survival”. In series [2] (first of two studies), the median survival is 12.1 months and the response rate was 32%. Besides, in series [2] (second of two studies), the median survival was 11.8 months and the response rate is reported as 26%.

With `O=c1[nH]cc(F)c(=O)[nH]1` [5-FU, 5-fluorouracil], the survival time in series [3] was 11 months. In series [4] (bolus administration), the median survival time was 11.3 months and the response rate is reported as 14%. In addition, in series [4] (infusional administration), the median survival time is listed as 12.1 months and the response rate is recorded as 22%.
